According to ChEMBL document CHEMBL3627674, “Discovery of wrightiadione as a novel template for the TrkA kinase inhibitors” (Bioorg Med Chem Lett, 2015):

Tests used:
[1] = system: Tyrosine-protein kinase ABL1 (Homo sapiens), P00519 [E255K]; test: Inhibition of ABL1 E255K mutant phosphorylation (unknown origin) assessed as remaining activity at 10 uM by high-throughput assay relative to control
[2] = target: Serine/threonine-protein kinase Chk1 (Homo sapiens) (UniProt O14757); test: Inhibition of CHEK1 (unknown origin) assessed as remaining activity at 10 uM by high-throughput assay relative to control
[3] = target: Mitogen-activated protein kinase 14 (Homo sapiens) (UniProt Q16539); test: Inhibition of p38-alpha (unknown origin) assessed as remaining activity at 10 uM by high-throughput assay relative to control
[4] = target: Focal adhesion kinase 1 (Homo sapiens) (UniProt Q05397); test: Inhibition of FAK (unknown origin) assessed as remaining activity at 10 uM by high-throughput assay relative to control
[5] = target: Platelet-derived growth factor receptor beta (Homo sapiens) (UniProt P09619); test: Inhibition of PDGFRB (unknown origin) assessed as remaining activity at 10 uM by high-throughput assay relative to control
[6] = target: Macrophage colony-stimulating factor 1 receptor (Homo sapiens) (UniProt P07333); test: Inhibition of CSF1R (unknown origin) assessed as remaining activity at 10 uM by high-throughput assay relative to control
Macrophage colony-stimulating factor 1 receptor (Homo sapiens), sequence (P07333 whole entry): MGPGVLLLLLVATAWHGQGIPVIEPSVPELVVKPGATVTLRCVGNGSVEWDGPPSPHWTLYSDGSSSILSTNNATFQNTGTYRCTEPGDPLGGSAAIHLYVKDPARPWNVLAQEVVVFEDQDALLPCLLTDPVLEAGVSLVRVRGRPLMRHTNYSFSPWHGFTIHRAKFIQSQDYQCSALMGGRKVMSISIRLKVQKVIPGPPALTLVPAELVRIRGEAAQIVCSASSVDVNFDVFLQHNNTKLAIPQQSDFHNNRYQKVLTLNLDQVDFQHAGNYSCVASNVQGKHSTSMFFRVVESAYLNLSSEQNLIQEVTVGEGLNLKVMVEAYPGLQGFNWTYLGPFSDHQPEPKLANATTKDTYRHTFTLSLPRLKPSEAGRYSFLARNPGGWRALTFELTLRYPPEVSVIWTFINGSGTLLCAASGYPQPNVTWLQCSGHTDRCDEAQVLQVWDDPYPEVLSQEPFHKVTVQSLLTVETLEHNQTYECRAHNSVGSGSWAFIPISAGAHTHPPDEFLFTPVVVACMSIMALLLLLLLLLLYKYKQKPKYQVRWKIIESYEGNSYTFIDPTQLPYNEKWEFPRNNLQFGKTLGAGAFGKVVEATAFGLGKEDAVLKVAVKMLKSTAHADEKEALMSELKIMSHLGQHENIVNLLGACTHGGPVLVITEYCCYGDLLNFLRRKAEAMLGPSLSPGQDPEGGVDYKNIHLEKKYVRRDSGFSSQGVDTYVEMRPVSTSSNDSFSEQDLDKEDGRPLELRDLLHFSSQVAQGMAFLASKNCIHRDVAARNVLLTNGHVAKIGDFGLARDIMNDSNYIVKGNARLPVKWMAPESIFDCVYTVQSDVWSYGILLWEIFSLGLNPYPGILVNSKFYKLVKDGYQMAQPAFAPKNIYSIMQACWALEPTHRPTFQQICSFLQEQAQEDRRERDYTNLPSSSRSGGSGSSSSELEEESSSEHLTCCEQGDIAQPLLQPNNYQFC

[7] = target: Proto-oncogene tyrosine-protein kinase receptor Ret (Homo sapiens) (UniProt P07949); test: Inhibition of RET (unknown origin) assessed as remaining activity at 10 uM by high-throughput assay relative to control
[8] = target: Rho-associated protein kinase 2 (Homo sapiens) (UniProt O75116); test: Inhibition of ROCK2 (unknown origin) assessed as remaining activity at 10 uM by high-throughput assay relative to control
[9] = target: Activin receptor type-1B (Homo sapiens) (UniProt P36896); test: Inhibition of ACVR1B (unknown origin) assessed as remaining activity at 10 uM by high-throughput assay relative to control
[10] = target: Mitogen-activated protein kinase 11 (Homo sapiens) (UniProt Q15759); test: Inhibition of p38-beta (unknown origin) assessed as remaining activity at 10 uM by high-throughput assay relative to control
[11] = target: Serine/threonine-protein kinase DCLK1 (Homo sapiens) (UniProt O15075); test: Inhibition of DCAMKL1 (unknown origin) assessed as remaining activity at 10 uM by high-throughput assay relative to control
[12] = target: Phosphatidylinositol 4-phosphate 3-kinase C2 domain-containing subunit beta (Homo sapiens) (UniProt O00750); test: Inhibition of PIK3C2B (unknown origin) assessed as remaining activity at 10 uM by high-throughput assay relative to control
[13] = target: Serine/threonine-protein kinase ULK2 (Homo sapiens) (UniProt Q8IYT8); test: Inhibition of ULK2 (unknown origin) assessed as remaining activity at 10 uM by high-throughput assay relative to control
[14] = target: SRSF protein kinase 3 (Homo sapiens) (UniProt Q9UPE1); test: Inhibition of SRPK3 (unknown origin) assessed as remaining activity at 10 uM by high-throughput assay relative to control
[15] = target: Mitogen-activated protein kinase 3 (Homo sapiens) (UniProt P27361); test: Inhibition of ERK1 (unknown origin) assessed as remaining activity at 10 uM by high-throughput assay relative to control
[16] = target: Casein kinase I isoform delta (Homo sapiens) (UniProt P48730); test: Inhibition of CSNK1D (unknown origin) assessed as remaining activity at 10 uM by high-throughput assay relative to control
Casein kinase I isoform delta (Homo sapiens), sequence (P48730 whole entry, looked up, canonical isoform): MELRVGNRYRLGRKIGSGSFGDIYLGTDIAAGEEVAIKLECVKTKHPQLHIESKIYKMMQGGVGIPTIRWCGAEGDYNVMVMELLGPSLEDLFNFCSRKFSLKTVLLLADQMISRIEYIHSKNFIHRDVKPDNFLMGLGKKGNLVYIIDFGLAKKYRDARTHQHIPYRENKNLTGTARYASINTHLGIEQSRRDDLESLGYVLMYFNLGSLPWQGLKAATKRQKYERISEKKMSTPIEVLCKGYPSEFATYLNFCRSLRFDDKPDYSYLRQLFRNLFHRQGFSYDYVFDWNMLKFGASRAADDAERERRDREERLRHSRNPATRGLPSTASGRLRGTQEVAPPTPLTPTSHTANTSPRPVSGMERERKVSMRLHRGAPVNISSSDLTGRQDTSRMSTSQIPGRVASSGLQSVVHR

[17] = target: MAP kinase-interacting serine/threonine-protein kinase 1 (Homo sapiens) (UniProt Q9BUB5); test: Inhibition of MKNK1 (unknown origin) assessed as remaining activity at 10 uM by high-throughput assay relative to control
MAP kinase-interacting serine/threonine-protein kinase 1 (Homo sapiens), sequence (Q9BUB5 whole entry, looked up): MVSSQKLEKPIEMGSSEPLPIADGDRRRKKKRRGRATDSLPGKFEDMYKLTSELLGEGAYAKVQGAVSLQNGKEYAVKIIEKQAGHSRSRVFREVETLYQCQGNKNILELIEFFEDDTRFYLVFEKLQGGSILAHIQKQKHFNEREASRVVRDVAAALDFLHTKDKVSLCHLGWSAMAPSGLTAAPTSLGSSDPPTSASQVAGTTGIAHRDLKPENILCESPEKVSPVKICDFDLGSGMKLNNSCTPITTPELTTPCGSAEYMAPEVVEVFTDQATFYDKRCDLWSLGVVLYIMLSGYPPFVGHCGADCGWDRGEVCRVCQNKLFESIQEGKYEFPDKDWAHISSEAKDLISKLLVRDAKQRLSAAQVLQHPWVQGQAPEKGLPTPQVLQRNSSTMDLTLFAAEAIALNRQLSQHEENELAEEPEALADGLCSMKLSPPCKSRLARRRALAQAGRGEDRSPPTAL

[18] = target: NUAK family SNF1-like kinase 2 (Homo sapiens) (UniProt Q9H093); test: Inhibition of SNARK (unknown origin) assessed as remaining activity at 10 uM by high-throughput assay relative to control
[19] = target: Serine/threonine-protein kinase PAK 1 (Homo sapiens) (UniProt Q13153); test: Inhibition of PAK1 (unknown origin) assessed as remaining activity at 10 uM by high-throughput assay relative to control
[20] = target: Ephrin type-A receptor 2 (Homo sapiens) (UniProt P29317); test: Inhibition of EPHA2 (unknown origin) assessed as remaining activity at 10 uM by high-throughput assay relative to control
[21] = target: Tyrosine-protein kinase ZAP-70 (Homo sapiens) (UniProt P43403); test: Inhibition of ZAP70 (unknown origin) assessed as remaining activity at 10 uM by high-throughput assay relative to control
[22] = target: MAP kinase-interacting serine/threonine-protein kinase 2 (Homo sapiens) (UniProt Q9HBH9); test: Inhibition of MKNK2 (unknown origin) assessed as remaining activity at 10 uM by high-throughput assay relative to control
[23] = target: Protein kinase C epsilon type (Homo sapiens) (UniProt Q02156); test: Inhibition of PRKCE (unknown origin) assessed as remaining activity at 10 uM by high-throughput assay relative to control
Protein kinase C epsilon type (Homo sapiens), sequence (Q02156 whole entry): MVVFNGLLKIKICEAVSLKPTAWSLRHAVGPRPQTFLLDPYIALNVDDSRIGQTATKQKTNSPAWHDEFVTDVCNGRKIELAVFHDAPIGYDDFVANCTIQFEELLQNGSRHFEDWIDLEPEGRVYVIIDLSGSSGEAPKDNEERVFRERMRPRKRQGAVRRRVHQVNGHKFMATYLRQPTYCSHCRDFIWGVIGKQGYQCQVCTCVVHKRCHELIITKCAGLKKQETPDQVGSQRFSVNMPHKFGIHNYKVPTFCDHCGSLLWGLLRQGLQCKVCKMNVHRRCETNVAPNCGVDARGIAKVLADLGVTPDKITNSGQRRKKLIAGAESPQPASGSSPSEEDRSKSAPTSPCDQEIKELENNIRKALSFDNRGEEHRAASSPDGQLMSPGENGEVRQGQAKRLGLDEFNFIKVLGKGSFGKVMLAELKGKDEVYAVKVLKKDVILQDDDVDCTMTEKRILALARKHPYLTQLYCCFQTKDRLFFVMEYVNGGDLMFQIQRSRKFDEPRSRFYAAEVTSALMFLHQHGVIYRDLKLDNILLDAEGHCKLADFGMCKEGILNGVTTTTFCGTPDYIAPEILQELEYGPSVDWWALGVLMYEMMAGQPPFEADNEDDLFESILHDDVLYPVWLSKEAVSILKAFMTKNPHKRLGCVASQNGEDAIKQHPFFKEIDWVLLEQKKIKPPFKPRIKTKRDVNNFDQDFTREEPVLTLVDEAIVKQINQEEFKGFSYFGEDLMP

[24] = target: Serine/threonine-protein kinase PLK3 (Homo sapiens, UniProt Q9H4B4); test: Inhibition of PLK3 (unknown origin) by radiometric analysis in presence of [gamma-33P]-ATP
[25] = target: Serine/threonine-protein kinase PLK4 (Homo sapiens) (UniProt O00444); test: Inhibition of PLK4 (unknown origin) assessed as remaining activity at 10 uM by high-throughput assay relative to control
[26] = target: Bone morphogenetic protein receptor type-2 (Homo sapiens) (UniProt Q13873); test: Inhibition of BMPR2 (unknown origin) assessed as remaining activity at 10 uM by high-throughput assay relative to control
[27] = target: Serine/threonine-protein kinase RIO2 (Homo sapiens) (UniProt Q9BVS4); test: Inhibition of RIOK2 (unknown origin) assessed as remaining activity at 10 uM by high-throughput assay relative to control
[28] = target: ALK tyrosine kinase receptor (Homo sapiens) (UniProt Q9UM73); test: Inhibition of ALK (unknown origin) assessed as remaining activity at 10 uM by high-throughput assay relative to control
[29] = target: Dual specificity mitogen-activated protein kinase kinase 2 (Homo sapiens) (UniProt P36507); test: Inhibition of MEK2 (unknown origin) assessed as remaining activity at 10 uM by high-throughput assay relative to control
[30] = target: Cyclin-dependent kinase 16 (Homo sapiens) (UniProt Q00536); test: Inhibition of PCTK1 (unknown origin) assessed as remaining activity at 10 uM by high-throughput assay relative to control
[31] = target: Tyrosine-protein kinase JAK2 (Homo sapiens) (UniProt O60674); test: Inhibition of JAK2 JH1 catalytic domain (unknown origin) assessed as remaining activity at 10 uM by high-throughput assay relative to control
[32] = target: Mitogen-activated protein kinase kinase kinase 9 (Homo sapiens) (UniProt P80192); test: Inhibition of MLK1 (unknown origin) assessed as remaining activity at 10 uM by high-throughput assay relative to control
Mitogen-activated protein kinase kinase kinase 9 (Homo sapiens), sequence (P80192 whole entry, looked up): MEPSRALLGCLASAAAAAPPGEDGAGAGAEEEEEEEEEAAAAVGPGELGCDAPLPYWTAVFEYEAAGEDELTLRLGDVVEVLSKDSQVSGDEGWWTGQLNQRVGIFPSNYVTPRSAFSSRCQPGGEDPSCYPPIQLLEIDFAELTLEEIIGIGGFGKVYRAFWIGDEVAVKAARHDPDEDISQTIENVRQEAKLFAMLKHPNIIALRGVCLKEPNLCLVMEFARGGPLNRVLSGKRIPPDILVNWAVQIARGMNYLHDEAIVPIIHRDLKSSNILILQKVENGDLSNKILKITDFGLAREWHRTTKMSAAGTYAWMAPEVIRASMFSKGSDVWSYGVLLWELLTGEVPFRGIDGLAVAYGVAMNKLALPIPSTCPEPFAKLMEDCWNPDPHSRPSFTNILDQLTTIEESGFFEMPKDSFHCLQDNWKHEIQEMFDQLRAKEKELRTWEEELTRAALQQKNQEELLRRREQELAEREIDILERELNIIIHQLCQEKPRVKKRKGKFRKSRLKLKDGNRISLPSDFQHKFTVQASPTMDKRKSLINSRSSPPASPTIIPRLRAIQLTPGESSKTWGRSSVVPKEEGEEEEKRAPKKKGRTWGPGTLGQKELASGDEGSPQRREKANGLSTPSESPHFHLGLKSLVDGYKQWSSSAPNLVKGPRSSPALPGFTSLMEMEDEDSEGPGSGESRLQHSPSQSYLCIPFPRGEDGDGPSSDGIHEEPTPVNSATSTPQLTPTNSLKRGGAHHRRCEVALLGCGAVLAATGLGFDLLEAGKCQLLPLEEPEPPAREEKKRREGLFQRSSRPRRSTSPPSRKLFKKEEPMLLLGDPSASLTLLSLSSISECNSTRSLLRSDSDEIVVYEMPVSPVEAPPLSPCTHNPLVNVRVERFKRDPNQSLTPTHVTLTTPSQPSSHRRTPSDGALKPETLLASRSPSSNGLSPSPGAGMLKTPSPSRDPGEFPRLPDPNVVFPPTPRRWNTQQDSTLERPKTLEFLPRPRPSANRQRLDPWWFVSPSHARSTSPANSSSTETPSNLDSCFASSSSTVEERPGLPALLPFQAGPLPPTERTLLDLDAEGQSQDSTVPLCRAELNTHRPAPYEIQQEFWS

Tyrosine-protein kinase ABL1 (Homo sapiens), P00519 [E255K], sequence (P00519 whole entry E255K): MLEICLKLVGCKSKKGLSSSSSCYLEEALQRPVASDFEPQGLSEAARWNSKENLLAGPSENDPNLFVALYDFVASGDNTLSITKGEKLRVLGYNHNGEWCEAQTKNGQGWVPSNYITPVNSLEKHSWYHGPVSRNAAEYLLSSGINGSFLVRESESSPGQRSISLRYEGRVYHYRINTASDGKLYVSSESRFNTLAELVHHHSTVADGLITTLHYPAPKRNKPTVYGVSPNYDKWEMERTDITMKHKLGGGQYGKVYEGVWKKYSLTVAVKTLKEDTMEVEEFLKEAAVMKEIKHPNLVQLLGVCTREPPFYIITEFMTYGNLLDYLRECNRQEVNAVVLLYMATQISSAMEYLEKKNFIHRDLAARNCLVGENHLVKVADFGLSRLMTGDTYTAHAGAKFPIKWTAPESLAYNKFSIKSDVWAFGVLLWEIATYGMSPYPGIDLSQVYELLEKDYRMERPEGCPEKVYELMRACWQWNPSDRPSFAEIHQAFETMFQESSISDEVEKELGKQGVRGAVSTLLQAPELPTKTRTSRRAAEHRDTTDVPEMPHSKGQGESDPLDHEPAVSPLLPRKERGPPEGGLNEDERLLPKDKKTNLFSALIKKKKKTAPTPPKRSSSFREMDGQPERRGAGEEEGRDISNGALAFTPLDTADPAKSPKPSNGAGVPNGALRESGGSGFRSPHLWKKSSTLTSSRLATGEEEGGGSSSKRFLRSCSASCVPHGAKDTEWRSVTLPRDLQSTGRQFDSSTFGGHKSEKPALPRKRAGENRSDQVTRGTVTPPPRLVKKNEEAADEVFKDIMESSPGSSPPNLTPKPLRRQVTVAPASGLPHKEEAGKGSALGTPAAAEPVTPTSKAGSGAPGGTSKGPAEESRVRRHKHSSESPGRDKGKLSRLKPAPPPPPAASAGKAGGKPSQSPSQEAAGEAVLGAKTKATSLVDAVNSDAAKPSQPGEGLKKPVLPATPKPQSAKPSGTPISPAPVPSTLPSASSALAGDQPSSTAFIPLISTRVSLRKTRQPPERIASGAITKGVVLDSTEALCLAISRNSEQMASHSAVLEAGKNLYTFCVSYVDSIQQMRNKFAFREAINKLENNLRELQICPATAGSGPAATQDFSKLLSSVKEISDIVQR

O=C1c2ccccc2-c2c1oc1ccccc1c2=O
Activity [1]: 93% | Activity [2]: 90% | Activity [3]: 95% | Activity [4]: 90% | Activity [5]: 45% | Activity [6]: 77% | Activity [7]: 74% | Activity [8]: 79% | Activity [9]: 82% | Activity [10]: 79% | Activity [11]: 78% | Activity [12]: 99% | Activity [13]: 59% | Activity [14]: 73% | Activity [15]: 87% | Activity [16]: 30% | Activity [17]: 99% | Activity [18]: 70% | Activity [19]: 93% | Activity [20]: 80% | Activity [21]: 77% | Activity [22]: 59% | Activity [23]: 96% | IC50 [24]: 8.97 µM | Activity [25]: 80% | Activity [26]: 53% | Activity [27]: 70% | Activity [28]: 48% | Activity [29]: 71% | Activity [30]: 92% | Activity [31]: 42% | Activity [32]: 74%
